Experimental findings from ChEMBL document CHEMBL1122718, “Benzylamines: synthesis and evaluation of antimycobacterial properties” (1984) are described below.

Holding throughout (assay type): functional
In assay [1] the test system is Mycobacterium tuberculosis. The assay can be described thus: Minimum inhibitory concentration (MIC) against Mycobacterium tuberculosis H 37 Ra.
Assay [2] deals with Mycobacterium tuberculosis. Briefly: Compound was evaluated for the minimum inhibitory concentration (MIC) against Mycobacterium tuberculosis H 37 Rv.
The subject of a further assay is Mycobacterium marinum. The assay can be described thus: Minimum inhibitory concentration (MIC) of compound against Mycobacterium marinum SN 1254.
Another assay has as its system Mycobacterium avium. Briefly: Minimum inhibitory concentration (MIC) of compound against Mycobacterium avium SN 304.
Assay [3] has as its system Mycobacterium tuberculosis. The assay can be described thus: Minimum inhibitory concentration (MIC) of compound against Mycobacterium tuberculosis H 37 Rv.
The test system of the next assay is Mycobacterium lufu. Briefly: Minimum inhibitory concentration (MIC) of compound against Mycobacterium lufu L 209.
The subject of assay [4] is Mycolicibacterium smegmatis. The assay can be described thus: Minimum inhibitory concentration (MIC) of compound against Mycobacterium smegmatis ATCC 607.

SMILES strings stand for the structures. Where only a bound is given, the exact number is not on record here.

In the case of `CCCNCc1cc(Cl)cc(Cl)c1.Cl`, the MIC – broadly, the lowest concentration that inhibits growth of the organism – in assay [1] is 20.4 µg/mL.
The same measure, in the same setting: the result for `CCCCCNCc1cccc(F)c1.Cl` reads 51.2 µg/mL.
The same measure, in the same setting: the result for `Cl.NCc1ccc(Cl)cc1Cl` reads over 256 µg/mL.
Still for that read-out and setting: as for `CNCc1ccc(Cl)cc1Cl.Cl`, the figure is over 256 µg/mL; as for `CNCc1cccc(F)c1.Cl`, 19.2 µg/mL; as for `CNCc1ccc(Cl)c(Cl)c1.Cl`, over 256 µg/mL.
Take `CCCCCCNCc1ccccc1.Cl`: the MIC in assay [1] was over 256 µg/mL.
On the same count and under the same terms, the result for `CCNCc1cccc(F)c1.Cl` reads 51.2 µg/mL; that for `CCCCNCc1cc(F)cc(Cl)c1.Cl`, 19.2 µg/mL.
The same measure, in the same setting: the result for `CCCCNCc1cccc(C(F)(F)F)c1.Cl` reads over 256 µg/mL; that for `CCNCc1ccccc1.Cl`, 205 µg/mL.
Still for that read-out and setting: as for `Cl.NCc1ccc(C(F)(F)F)cc1`, the figure is over 256 µg/mL; as for `CCCCNCc1ccc(Br)cc1.Cl`, over 256 µg/mL.
For the compound `CCNCc1cccc(C(F)(F)F)c1.Cl`, the MIC in assay [1] is over 256 µg/mL.
The same measure, in the same setting: the result for `CNCc1cc(Cl)ccc1Cl.Cl` reads over 256 µg/mL; that for `CCCCNCc1ccc(C(F)(F)F)cc1.Cl`, over 256 µg/mL.
Still for that read-out and setting: the result for `CNCc1cc(Cl)cc([N+](=O)[O-])c1.Cl` reads 128 µg/mL; that for `CCNCc1cc(Cl)ccc1Cl.Cl`, over 256 µg/mL.
Still for that read-out and setting: the result for `CCCCCNCc1cccc(Cl)c1.Cl` reads 51.2 µg/mL; that for `CCCCNCc1ccc(Cl)cc1.Cl`, over 256 µg/mL.
In assay [1], `CCCCNCc1ccccc1Cl.Cl` came in with an MIC of over 256 µg/mL.
`Cl.NCc1cccc([N+](=O)[O-])c1` returned an MIC in assay [1] of 179 µg/mL.
Same read-out and setting: as for `CCNCc1cccc([N+](=O)[O-])c1.Cl`, the figure is over 256 µg/mL.
The same measure, in the same setting: the result for `CCNCc1ccc(Cl)cc1Cl.Cl` reads over 256 µg/mL; that for `CCNCc1ccccc1Br.Cl`, over 256 µg/mL; that for `CCCNCc1c(Cl)cccc1Cl.Cl`, over 256 µg/mL.
Still for that read-out and setting: as for `CCCNCc1cccc(F)c1.Cl`, the figure is 25.6 µg/mL.
`Cl.NCc1ccc(Cl)c(Cl)c1` displayed an MIC in assay [1] of over 256 µg/mL.
Same read-out and setting: as for `CCCNCc1cc(F)cc(Cl)c1.Cl`, the figure is 25.6 µg/mL; as for `CCCCNCc1c(Cl)cccc1Cl.Cl`, over 256 µg/mL.
Still for that read-out and setting: the result for `COc1ccc(CN)cc1.Cl` reads over 256 µg/mL; that for `CCNCc1cc(Cl)cc([N+](=O)[O-])c1.Cl`, 102 µg/mL; that for `CNCc1cc(F)cc(F)c1.Cl`, 32 µg/mL.
With `Cl.NCc1cccc(Cl)c1`, in assay [1], the MIC came to 17.9 µg/mL.
On the same count and under the same terms, as for `CCCNCc1cc(F)cc(F)c1.Cl`, the figure is 19.2 µg/mL; as for `Cl.NCc1c(Cl)cccc1Cl`, over 256 µg/mL.
In assay [1], `CCCCCCCNCc1ccccc1.Cl` returned an MIC of over 256 µg/mL.
`CCCNCc1cccc(C(F)(F)F)c1.Cl` came in with an MIC in assay [1] of over 256 µg/mL.
Same read-out and setting: as for `CCCCNCc1cccc(Cl)c1.Cl`, the figure is 64 µg/mL.
Still for that read-out and setting: as for `CCCCCNCc1cc(Cl)cc(Cl)c1.Cl`, the figure is 128 µg/mL; as for `CCNCc1c(Cl)cccc1Cl.Cl`, over 256 µg/mL.
As to `CCCCCCCCNCc1ccccc1.Cl` [BENZYL(OCTYL)AMINE HYDROCHLORIDE], in assay [1], the MIC is over 256 µg/mL.
Same read-out and setting: the result for `Cl.N#Cc1cccc(CN)c1` reads 128 µg/mL; that for `Cl.NCc1cccc(C(F)(F)F)c1`, over 256 µg/mL.
Turning to `CCCCCCCNCc1cc(Cl)cc(Cl)c1.Cl`, it took 154 µg/mL to inhibit growth in assay [1] (MIC).
Still for that read-out and setting: as for `CCCCNCc1ccccc1Br.Cl`, the figure is over 256 µg/mL.
Still for that read-out and setting: the result for `CCCNCc1cc(Cl)cc([N+](=O)[O-])c1.Cl` reads 102 µg/mL; that for `Cl.NCc1cc(Cl)cc(Cl)c1`, 20.4 µg/mL.
Same read-out and setting: as for `CCNCc1cccc(Br)c1.Cl`, the figure is 64 µg/mL; as for `CCCCNCc1ccccc1.Cl`, 51.2 µg/mL; as for `CNCc1ccccc1.Cl`, 102 µg/mL.
For `CCCNCc1ccc(C(F)(F)F)cc1.Cl`, the MIC in assay [1] is over 256 µg/mL.
`CNCc1cccc(C(F)(F)F)c1.Cl`: the MIC in assay [1] was over 256 µg/mL.
`CCCNCc1ccc(Cl)cc1Cl.Cl` came in with an MIC in assay [1] of over 256 µg/mL.
Same read-out and setting: the result for `CCCCNCc1cc(Cl)cc(Cl)c1.Cl` reads 64 µg/mL; that for `CCCNCc1cccc(C#N)c1.Cl`, 76.8 µg/mL; that for `CC(C)NCc1cccc([N+](=O)[O-])c1.Cl`, over 256 µg/mL.
Still for that read-out and setting: the result for `CCCCCNCc1cccc(C#N)c1.Cl` reads 76.8 µg/mL; that for `CNCc1cccc(I)c1.Cl`, 154 µg/mL; that for `CNCc1ccc(Br)cc1.Cl`, over 256 µg/mL.
The same measure, in the same setting: the result for `CNCc1ccc(C(F)(F)F)cc1.Cl` reads over 256 µg/mL; that for `CCCCNCc1cccc(I)c1.Cl`, 205 µg/mL; that for `CCCNCc1cccc(I)c1.Cl`, 256 µg/mL.
As to `CCCCNCc1cccc([N+](=O)[O-])c1.Cl`, in assay [1], the minimal inhibitory concentration (MIC) is over 256 µg/mL.
For the compound `Cl.NCc1ccc(Cl)c(C(F)(F)F)c1`, the MIC in assay [1] is over 256 µg/mL.
Take `CCCNCc1ccccc1.Cl`: it took 51.2 µg/mL to inhibit growth in assay [1] (MIC).
Same read-out and setting: the result for `CC(C)NCc1cccc(Cl)c1.Cl` reads over 256 µg/mL; that for `CNCc1cccc(Br)c1.Cl`, 19.2 µg/mL.
For the compound `CCNCc1cc(Cl)cc(Cl)c1.Cl`, the MIC in assay [1] is 17.9 µg/mL.
The same measure, in the same setting: as for `CCCCNCc1ccc(Cl)c(Cl)c1.Cl`, the figure is over 256 µg/mL.
Same read-out and setting: the result for `CCCCNCc1cc(Cl)ccc1Cl.Cl` reads over 256 µg/mL; that for `CCNCc1cccc(I)c1.Cl`, over 256 µg/mL.
In assay [1], `CC(C)NCc1cccc(C#N)c1.Cl` gave an MIC of over 256 µg/mL.
Still for that read-out and setting: the result for `CNCc1ccccc1Cl.Cl` reads over 256 µg/mL.
Still for that read-out and setting: the result for `CCCCCNCc1cccc([N+](=O)[O-])c1.Cl` reads over 256 µg/mL.
The same measure, in the same setting: the result for `CCNCc1cc(F)cc(Cl)c1.Cl` reads 32 µg/mL.
Consider `CCCNCc1cccc(Br)c1.Cl`, for which, in assay [1], the lowest concentration to inhibit growth (MIC) was 51.2 µg/mL.
The same measure, in the same setting: the result for `Cl.NCc1cc(Cl)ccc1Cl` reads 76.8 µg/mL.
For `CNCc1cc(F)cc(Cl)c1.Cl`, in assay [1], the MIC was determined as 19.2 µg/mL.
In turn, `CNCc1ccc(Cl)cc1.Cl` displayed an MIC in assay [1] of over 256 µg/mL.
Still for that read-out and setting: the result for `CCCNCc1cc(Cl)ccc1Cl.Cl` reads over 256 µg/mL.
Same read-out and setting: the result for `CCNCc1cccc(Cl)c1.Cl` reads 25.6 µg/mL; that for `CCCCCNCc1cccc(C(F)(F)F)c1.Cl`, over 256 µg/mL; that for `CNCc1c(Cl)cccc1Cl.Cl`, over 256 µg/mL.
The compound `Cl.NCc1ccccc1` returned an MIC in assay [1] of 76.8 µg/mL.
Same read-out and setting: as for `CCNCc1ccc(OC)cc1.Cl`, the figure is over 256 µg/mL.
The same measure, in the same setting: as for `CC(C)NCc1cccc(F)c1.Cl`, the figure is over 256 µg/mL.
On the same count and under the same terms, the result for `CNCc1ccc(Cl)c(C(F)(F)F)c1.Cl` reads over 256 µg/mL.
For the compound `Cl.NCc1cccc(I)c1`, in assay [1], the MIC came out at 179 µg/mL.
Same read-out and setting: as for `Cl.NCc1cccc(F)c1`, the figure is 51.2 µg/mL; as for `CCCCNCc1cccc(C#N)c1.Cl`, 51.2 µg/mL.
As to `Cl.NCc1cccc(Br)c1`, the MIC in assay [1] was found to be 32 µg/mL.
For `CCCCNCc1cccc(F)c1.Cl`, the MIC in assay [2] amounted to 30 µg/mL; in assay [1], 25.6 µg/mL.
For `CCCNCc1cccc([N+](=O)[O-])c1.Cl`, the MIC in assay [1] is over 256 µg/mL.
Still for that read-out and setting: as for `Cl.NCc1cc(F)cc(F)c1`, the figure is 57.6 µg/mL; as for `CCCCNCc1ccc(Cl)c(C(F)(F)F)c1.Cl`, over 256 µg/mL; as for `CNCc1ccc(OC)cc1.Cl`, over 256 µg/mL.
The same measure, in the same setting: as for `CCNCc1cccc(C#N)c1.Cl`, the figure is 102 µg/mL.
For the compound `CCCNCc1cccc(Cl)c1.Cl`, in assay [1], it took 17.9 µg/mL to inhibit growth (MIC).
On the same count and under the same terms, as for `Cl.NCc1cc(F)cc(Cl)c1`, the figure is 32 µg/mL; as for `CNCc1cccc([N+](=O)[O-])c1.Cl`, 256 µg/mL; as for `CCNCc1ccc(Cl)c(Cl)c1.Cl`, over 256 µg/mL.
On the same count and under the same terms, the result for `CNCc1cccc(C#N)c1.Cl` reads 51.2 µg/mL; that for `CCNCc1ccc(C(F)(F)F)cc1.Cl`, over 256 µg/mL.
With `CCCNCc1ccc(OC)cc1.Cl`, in assay [1], the minimum inhibitory concentration (MIC) was over 256 µg/mL.
In turn, `CCCCNCc1cccc(Br)c1.Cl` yielded a minimal inhibitory concentration (MIC) in assay [1] of 38.4 µg/mL.
Same read-out and setting: as for `CCNCc1ccc(Cl)c(C(F)(F)F)c1.Cl`, the figure is over 256 µg/mL; as for `CCNCc1cc(F)cc(F)c1.Cl`, 44.8 µg/mL.
Same read-out and setting: as for `CCCNCc1ccc(Cl)c(C(F)(F)F)c1.Cl`, the figure is over 256 µg/mL.
Still for that read-out and setting: the result for `CC(C)NCc1cccc(C(F)(F)F)c1.Cl` reads over 256 µg/mL.
In assay [1], `CCCCCNCc1ccccc1.Cl` returned an MIC of 154 µg/mL.
On the same count and under the same terms, as for `CCCCNCc1ccc(Cl)cc1Cl.Cl`, the figure is over 256 µg/mL; as for `CCCCCNCc1cc(F)cc(F)c1.Cl`, 32 µg/mL.
Regarding `CCCCNCc1cc(F)cc(F)c1.Cl`, the MIC with Mycobacterium marinum was found to be 6 µg/mL; in the assay with Mycobacterium avium, 3 µg/mL; in assay [3], 4 µg/mL; in the assay on Mycobacterium lufu, 8 µg/mL; in assay [1], 6.4 µg/mL; in assay [4], 32 µg/mL.
`CCCNCc1ccc(Cl)c(Cl)c1.Cl` registered an MIC in assay [1] of over 256 µg/mL.
Still for that read-out and setting: the result for `CCCCNCc1cc(Cl)cc([N+](=O)[O-])c1.Cl` reads 205 µg/mL.
